From patent US11299457B2, “Chemical compounds” (GlaxoSmithKline Intellectual Property (No. 2) Limited, priority 2012, dated 2022)

What was measured:
[1] = target: androgen receptor (MBP-hAR-LBD, rat androgen ligand binding domain) (Rattus norvegicus (Rat), UniProt P15207); assay: Androgen receptor fluorescence polarization assay; conditions: maximum of curve fit; max/min compared to absence of compound and 10^-5 M control compound
Method: The androgen receptor fluorescence polarization assay is used to investigate the interaction of the compounds with the androgen receptor.
Compounds are added to the 384 well black low-volume plates to a final volume of 0.1 μL. DTT and DMSO are added to the chilled assay buffer just before beginning assay. Sufficient Fluormone AL Red and AR-LBD are defrosted on ice and added to the chilled buffer in a glass tube to give a final concentration of 1 nM and 100 nM, (for current batch) respectively. A volume of 10 μL of the assay mix is added to compound plates with a multidrop. […] The plates are counted in a Discovery Analyst with suitable 535 nm excitation and 590 nm emission interference filters (Dichroic 561 nM). […] Test compounds are dissolved and diluted in DMSO. Compounds are assayed in singlicate, a four parameter curve fit of the following form being applied
[formula] where a is the minimum, b is the Hill slope, c is the IC50 and d is the maximum.
Data is presented as the mean pIC50 with the standard error of the mean of n experiments.

[2] = test system: castrated male rat (ORX): levator ani muscle and prostate; assay: Castrated male rat model (ORX rat); assay type: in vivo; conditions: for prostate sparing: defined as at least a 2:1 ratio of levator ani ED50 to prostate ED50; for levator ani hypertrophy: favorable = 30% or greater increase in levator ani weight vs vehicle-treated castrates, dosed orally at up to 10 mg/kg/day
Source text: Castrated Male Rat Model (ORX Rat)
The activity of the compounds of the present invention as modulators of the androgen receptor was investigated using a castrated male rat model (ORX) as described in C. D. Kockakian, Pharmac. Therap. B 1(2), 149-177 (1975); C. Tobin and Y. Joubert, Developmental Biology 146, 131-138 (1991); J. Antonio, J. D. Wilson and F. W. George, J Appl. Physiol. 87(6) 2016-2019 (1999)) the disclosures of which herein are included by reference.
Androgens have been identified as playing important roles in the maintenance and growth of many tissues in both animals and humans. Muscles, like the levator ani and bulbocavernosus, and sexual accessory organs, such as the prostate glands and seminal vesicles have high expression levels of the androgen receptor and are known to respond quickly to exogenous androgen addition or androgen deprivation through testicular ablation. Castration produces dramatic atrophy of muscle and sexual accessory organs; whereas the administration of exogenous androgens to the castrated animal results in effective hypertrophy of these muscles and sexual accessory organs. Although the levator ani muscle, also known as the dorsal bulbocavernosus, is not ‘true skeletal muscle’ and definitely sex-linked, it is reasonable to use this muscle to screen muscle anabolic activities of test compounds because of its androgen responsiveness and simplicity of removal.
Male Sprague-Dawley rats weighing 160-180 grams were used in the assay. The rats were singly caged upon receiving and throughout the study. Bilateral orchidectomies were performed in sterilized surgical conditions under isoflurane anesthesia. An anteroposterior incision was made in the scrotum. The testicles were exteriorized and the spermatic artery and vas deferens were ligated with 4.0 silk 0.5 cm proximal to the ligation site. The testicles then were removed by a surgical scissors distal to the ligation sites. The tissue stumps were returned to the scrotum, the scrotum and overlying skin were closed by a surgical stapler. The Sham-ORX rats underwent all procedures except ligation and scissors cutting. The rats were assigned randomly into study groups 7-10 days post surgery based on the body weight.
Dihydrotestosterone (DHT) and the standard SARM, S-22, (J. Pharma. Exper. Thera. Vol 315, p. 230) were used as a positive control (1-10 mg/kg s.c. for DHT and 0.1 to 3 mg/kg p.o. for S-22). Compounds of the current invention were administered subcutaneously or orally for 4-28 days. Alternatively, some compounds of the current invention were administered subcutaneously or orally for 7-49 days. The rats were weighed daily and doses were adjusted accordingly. The general well being of the animal was monitored throughout the course of the study.
At the end of the study, the rats were euthanized in a CO2 chamber. The ventral prostate glands (VP), seminal vesicles (SV), levator ani muscle (LA) and bulbocavernosus (BC) were carefully dissected. The tissues were blotted dry; the weights were recorded, and then saved for histological and molecular analysis. The VP and SV weights serve as androgenic indicators and LA and BC as anabolic indicators. The ratio of anabolic to androgenic activities was used to evaluate the test compounds. Serum luteinizing hormone (LH), follicle stimulating hormone (FSH) and other potential serum markers of anabolic activities were also analyzed.
In general, preferred compounds show levator ani hypertrophy and very little prostate stimulation.
The compounds shown in Examples 9, 20, 26, 27, 33, 51, 52, and 53 were tested in the castrated male rate model essentially as described above. Test compounds were employed in free or salt form. […] Prostate sparing was defined as at least a 2:1 ratio of levator ani ED50 to prostate ED50. The ED50 is defined as 50% of the maximum response above the vehicle treated castrate level. […]

Chain of androgen receptor (MBP-hAR-LBD, rat androgen ligand binding domain) (P15207 651-882): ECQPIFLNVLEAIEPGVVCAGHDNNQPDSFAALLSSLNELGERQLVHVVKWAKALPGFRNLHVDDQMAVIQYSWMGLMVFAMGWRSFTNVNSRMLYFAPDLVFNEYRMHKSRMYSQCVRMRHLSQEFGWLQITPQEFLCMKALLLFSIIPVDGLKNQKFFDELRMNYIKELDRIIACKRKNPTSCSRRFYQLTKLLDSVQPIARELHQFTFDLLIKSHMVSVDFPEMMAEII

Structure (SMILES)	% Max [1] [%]	prostate sparing [2]	levator ani hypertrophy [2]
C[C@H](n1ccc2c(C(F)(F)F)c(C#N)ccc21)C(C)(C)O [Example 21, (S)-1-(3-Hydroxy-3-methylbutan-2-yl)-4-(trifluoromethyl)-1H-indole-5-carbonitrile]	100	–	–
Cc1cc2c(C(F)(F)F)c(C#N)ccc2n1C(C)CS(C)(=O)=O (stereo not shown) [Example 9, 2-Methyl-1-(1-(methylsulfonyl)propan-2-yl)-4-(trifluoromethyl)-1H-indole-5-carbonitrile]	–	spared the prostate	favorable levator ani hypertrophy
CC[C@H](c1cncc(C#N)c1)n1ccc2c(C#N)c(C#N)ccc21 [Example 51, (R)-1-(1-(5-Cyanopyridin-3-yl)propyl)-1H-indole-4,5-dicarbonitrile]	–	spared the prostate	favorable levator ani hypertrophy
CC(CS(C)(=O)=O)n1ccc2c(C(F)(F)F)c(C#N)ccc21 (stereo not shown) [Example 26, 1-(1-(Methylsulfonyl)propan-2-yl)-4-(trifluoromethyl)-1H-indole-5-carbonitrile]	–	spared the prostate	favorable levator ani hypertrophy
C[C@H](CS(C)(=O)=O)n1ccc2c(C(F)(F)F)c(C#N)ccc21 [Example 27, (R)-1-(1-(Methylsulfonyl)propan-2-yl)-4-(trifluoromethyl)-1H-indole-5-carbonitrile]	–	spared the prostate	favorable levator ani hypertrophy
C[C@@H](n1ccc2c(C(F)(F)F)c(C#N)ccc21)[C@](C)(O)C(F)(F)F [Example 53, 1-((2R,3S)-4,4,4-Trifluoro-3-hydroxy-3-methylbutan-2-yl)-4-(trifluoromethyl)-1H-indole-5-carbonitrile]	–	spared the prostate	favorable levator ani hypertrophy
C[C@@H](n1ccc2c(Cl)c(C#N)ccc21)[C@](C)(O)C(F)(F)F [Example 52, 4-Chloro-1-((2R,3S)-4,4,4-trifluoro-3-hydroxy-3-methylbutan-2-yl)-1H-indole-5-carbonitrile]	–	spared the prostate	favorable levator ani hypertrophy
